Measured values: publication PMC3608752 (Annals of neurology, 2013)
pIC50: −log10 of the molar value.

Target: T1, PH20 hyaluronidase (bovine testicular hyaluronidase, BTH/PH20) (Bos taurus, UniProt Q2YDK3)
T1 sequence (Q2YDK3 36-553): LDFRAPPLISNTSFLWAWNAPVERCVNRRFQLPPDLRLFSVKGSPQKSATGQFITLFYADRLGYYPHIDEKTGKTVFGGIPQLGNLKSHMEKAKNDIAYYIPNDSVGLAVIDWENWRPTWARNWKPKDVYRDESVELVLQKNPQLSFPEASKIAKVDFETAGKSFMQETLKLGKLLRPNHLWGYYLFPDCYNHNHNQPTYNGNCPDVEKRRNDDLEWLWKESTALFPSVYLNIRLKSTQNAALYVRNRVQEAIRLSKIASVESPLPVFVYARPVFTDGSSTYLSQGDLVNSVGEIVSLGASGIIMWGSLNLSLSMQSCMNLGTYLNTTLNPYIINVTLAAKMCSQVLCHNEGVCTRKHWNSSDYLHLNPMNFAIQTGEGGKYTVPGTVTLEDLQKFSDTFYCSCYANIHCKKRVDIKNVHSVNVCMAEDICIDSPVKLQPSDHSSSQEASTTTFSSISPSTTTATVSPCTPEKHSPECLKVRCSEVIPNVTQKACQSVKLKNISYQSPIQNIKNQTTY
Type: biochemical

pIC50: ~4.48
Structure (SMILES): CCCCCCCCCCCCCCCC(=O)OC[C@H](O)[C@H]1OC(=O)C(O)=C1O [VCPAL, 6-O-Palmitoyl-L-ascorbic acid]
